According to patent US6716883B1, “Composition useful to treat periodontal disease” (priority 1998, dated 2004):

What was measured:
IL-1 Beta = conditions: Casper et al. 1999; cited from earlier work
rat bone marrow cultures = test: Mineral levels in rat bone marrow cultures treated with BaP; assay type: cell-based; conditions: resveratrol and BaP together
AhR in SBMC cells = target: T1, AhR in SBMC cells (Rattus norvegicus, UniProt P41738); test: Live whole cell (RSBMC) competitive uptake/binding assay with 3H-TCDD
T1 construct: endogenous in cells; host or cells: rat stromal bone marrow cell line (RSBMC / SBMC)
T1 sequence (P41738 10-853): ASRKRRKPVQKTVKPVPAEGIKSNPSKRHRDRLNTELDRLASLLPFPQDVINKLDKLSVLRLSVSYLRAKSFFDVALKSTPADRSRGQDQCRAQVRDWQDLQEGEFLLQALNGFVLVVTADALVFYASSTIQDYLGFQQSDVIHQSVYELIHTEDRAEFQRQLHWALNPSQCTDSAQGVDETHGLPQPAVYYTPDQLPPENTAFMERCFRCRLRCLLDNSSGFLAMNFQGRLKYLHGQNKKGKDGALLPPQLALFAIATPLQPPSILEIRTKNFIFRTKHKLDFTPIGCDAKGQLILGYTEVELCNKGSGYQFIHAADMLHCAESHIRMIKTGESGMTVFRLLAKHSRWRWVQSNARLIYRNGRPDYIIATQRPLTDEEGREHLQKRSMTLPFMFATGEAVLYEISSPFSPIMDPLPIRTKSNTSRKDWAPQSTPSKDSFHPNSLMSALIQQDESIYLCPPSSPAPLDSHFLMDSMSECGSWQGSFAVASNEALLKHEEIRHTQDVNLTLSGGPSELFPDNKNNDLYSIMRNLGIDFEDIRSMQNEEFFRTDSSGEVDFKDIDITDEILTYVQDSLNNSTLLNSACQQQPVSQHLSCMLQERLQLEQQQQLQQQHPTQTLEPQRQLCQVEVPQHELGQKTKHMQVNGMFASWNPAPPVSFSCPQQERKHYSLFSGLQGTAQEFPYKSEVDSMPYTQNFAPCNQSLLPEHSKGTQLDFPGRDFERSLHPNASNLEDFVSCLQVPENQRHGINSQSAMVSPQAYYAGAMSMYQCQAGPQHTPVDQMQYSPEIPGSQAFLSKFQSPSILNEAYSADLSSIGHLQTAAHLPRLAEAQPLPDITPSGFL
Description: The need for preincubation (see below) may also alter competition kinetics in this type of binding assay. Cells were plated at a density of 10,000 per well in Titertek 96-well plates, and left overnight to attach in medium. […] Cells were preincubated with cold drug one hour prior to addition of radiolabeled TCDD (specific activity 33.4 Ci/mmol; Chemsyn Lab, Kansas) (pilot studies having shown that preincubation was required to detect competition). One set of wells was incubated without cold drug to determine total binding. ^3H-TCDD (10,000 cpm/well in a volume of 10 μl) was added and incubated for 4 hours at room temperature. The media were aspirated and the cells washed 4× with 100 μl of PBS. 100 μl of 0.1N sulphuric acid was added and the cells were incubated at 37° C. overnight to break the cells open. 80 μl of the lysate was added to 5 ml of scintillation fluid and counted in a beta counter.

Row | Compound | induction of IL-1 Beta by AhR ligands (IL-1 Beta) | reversal of BaP effects on mineral levels (rat bone marrow cultures; BaP 10^−8M) | reversal of BaP effects on mineral levels (rat bone marrow cultures; higher concentrations of BaP) | IC50 (AhR in SBMC cells) | concentration reducing 3H-TCDD binding to background levels (AhR in SBMC cells; 1 h preincubation with cold drug, 4 h with 3H-TCDD at room temperature)
1 | Oc1ccc(C=Cc2cc(O)cc(O)c2)cc1 [resveratrol, 3,5,4′-trihydroxystilbene] | prevent the induction | complete reversal | partial reversal |  | 
2 | Clc1cc2c(cc1Cl)Oc1cc(Cl)c(Cl)cc1O2 [TCDD, 2,3,7,8-tetrachlorodibenzo-p-dioxin] |  |  |  | ~3.7 nM | 33 nM
